According to patent publication US9783513B2, “STAT3 inhibitors and their anticancer use” (Ohio State Innovation Foundation, priority 2012, dated 2017):
“Also recorded” adds a separate entry of the source. Read-outs that look alike come from different tables or passages of the source.

Experiments:
[1] = tested on: human sarcoma cell line U2OS; assay: Cell viability (MTT) assay, U2OS; assay type: cell-based; settings: Homo sapiens
Description: (§1) Human sarcoma cell lines (RD2, RH30, U2OS) were seeded in 96-well plates at a density of 3,000 cells per well. The cells were incubated at 37° C. for a period of 24 hours. Different concentrations of LY-5 (0.1-10 μM), LY-3 (0.1-20 μM), and LLL12 (0.1-10 μM) prepared as a 20 mM stock solution in sterile DMSO were added in triplicate to the plates in the presence of 10% FBS. 3-(4,5-Dimethylthiazolyl)-2, 5-diphenyltetrazoliumbromide (MTT) was added to evaluate cell viability. The absorbance was read at 595 nm. IC50 values were determined using SigmaPlot 9.0 Software (Systat Software, Inc., San Jose, Calif.).
(§2) Alternatively, cells were seeded in 96-well plates in triplicate at a density of 3,000 cells per well and given 24 hours to adhere. Cells were then treated with varying concentrations of the inhibitors in the presence of 10% FBS. The cells were incubated for 72 hours at 37° C. 25 μl of MTT dye (Sigma, #M5655) was added to each sample and incubated for 3.5 hours. After this, 100 μl of N,N-dimethylformamide (Sigma, #D4551) solubilization solution was added to each well. The absorbance at 450 nm was read the following day. Half-Maximal inhibitory concentrations (IC50) were determined using Sigma Plot 9.0 software (Systat Software Inc.).
Table 6 below lists specific compounds as well as experimentally determined STAT3 activity in a cell-based assay. The STAT3 activity was determined using the cell viability assays with human sarcoma cell line U2OS as described above. The compounds in Table 6 were synthesized with methods identical or analogous to those described herein. The compound reference numbers (“Ref. No.”) in Table 6 correspond to the compound numbers used in Table 3.

[2] = tested on: human sarcoma cell line RH30; assay: Cell viability (MTT) assay, RH30; assay type: cell-based
Description: as §1, §2
Table 7 below lists specific compounds as well as experimentally determined STAT3 activity in a cell-based assay. The STAT3 activity was determined using the cell viability assays with human sarcoma cell lines (RD2, RH30, U2OS) as described above. The compound reference numbers (“Ref. No.”) in Table 7 correspond to the compound numbers used in Table 3.

[3] = tested on: human sarcoma cell lines (RD2, RH30, U2OS); assay: Cell viability (MTT) assay, different cell lines; assay type: cell-based; settings: in different cell lines
Description: as §1, §2

[4] = molecular target: T1, PLK3 (Homo sapiens, UniProt Q9H4B4); assay: Kinase screening (KINOMESCAN), PLK3; assay type: binding
T1 construct: purchased KINOMESCAN, San Diego, Calif
T1 sequence (Q9H4B4 whole entry): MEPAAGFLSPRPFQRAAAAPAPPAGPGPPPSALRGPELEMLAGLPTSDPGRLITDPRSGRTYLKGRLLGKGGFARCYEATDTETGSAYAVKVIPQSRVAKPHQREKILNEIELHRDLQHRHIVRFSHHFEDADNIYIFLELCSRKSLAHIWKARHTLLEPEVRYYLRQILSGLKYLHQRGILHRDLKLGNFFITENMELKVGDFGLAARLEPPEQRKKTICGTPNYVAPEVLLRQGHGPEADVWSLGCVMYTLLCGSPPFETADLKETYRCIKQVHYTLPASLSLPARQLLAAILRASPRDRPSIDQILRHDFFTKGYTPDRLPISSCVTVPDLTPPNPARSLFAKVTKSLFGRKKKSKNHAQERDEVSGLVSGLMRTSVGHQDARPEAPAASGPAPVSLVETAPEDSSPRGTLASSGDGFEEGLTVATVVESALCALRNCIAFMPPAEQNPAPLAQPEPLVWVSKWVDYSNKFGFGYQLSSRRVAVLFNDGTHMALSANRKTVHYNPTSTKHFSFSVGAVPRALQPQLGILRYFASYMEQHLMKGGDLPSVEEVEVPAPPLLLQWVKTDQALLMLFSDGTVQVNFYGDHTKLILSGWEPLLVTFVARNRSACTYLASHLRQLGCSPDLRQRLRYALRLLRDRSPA
Description: (§3) The potential off-target activity of a representative compound was assessed in a screen against 96 protein and lipid kinases (see FIGS. 56 and 60). The test compound, LY-5, was assessed at 1000 and 5000 nM concentration using in vitro kinase assays. The assays were carried out using standard techniques known to one skilled in the art (KINOMESCAN™, San Diego, Calif.). The data in FIG. 60 show the % inhibition for the tested concentrations of LY-5 in the panel of kinases assessed. The interaction map provides a visualization of the relationship of these inhibition data from FIG. 60 to various kinase families.

[5] = tested on: 96 human protein or lipid kinases; assay: Kinase screening (KINOMESCAN), panel of 96 kinases; assay type: binding
Description: as §3

[6] = molecular target: STAT3 SH2 domain (Homo sapiens, UniProt P40763); assay: Fluorescence polarization (FP) assay; assay type: binding
Chain of STAT3 SH2 domain (P40763 580-670 limits assumed): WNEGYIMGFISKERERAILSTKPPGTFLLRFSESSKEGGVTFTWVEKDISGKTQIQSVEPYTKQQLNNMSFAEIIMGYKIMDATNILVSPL
Description: Screening was performed at physiologically relevant temperature 37° C. Before each experiment, Compound LY-5 was prepared freshly from the stock solution. Compound LY-5 increased its background fluorescence reading at 595 nm at high concentrations, so the control solutions for each concentration were prepared by mixing buffer, LY-5, and fluorescence-labeled peptides together.
Screening was performed at approximately 37° C. STAT3 protein was used at 300 nM. The final concentration of buffer components used for all FP assays was 10 mM HEPES (pH 7.5), 1 mM EDTA, 0.1% Nonidet P-40, 50 mM NaCl, and 20% DMSO. Dithiothreitol was not added. LP-5 was diluted to a series of concentrations (1-200 μM) from a 20 mM stock in DMSO. Proteins were incubated with LP-5 in Eppendorf tubes at room temperature for 60 min prior addition of the 5-carboxyfluorescein labeled peptides. The final concentration of labeled peptide is 10 nM. The mixtures were transferred to a 384 Well Costar Black plate with each concentration repeated in three wells. The mixtures were equilibrated in the incubator at 37° C. for at least 30 min. The FP readings were measured and the experiments were repeated three times. Inhibition curves with standard deviation were fitted and Ki value was determined accordingly.

[7] = tested on: P-STAT3 induced by AZD6244; assay: Western blot, P-STAT3 induced by MEK inhibitor AZD6244; assay type: cell-based, human; settings: 2 h
[8] = molecular target: T2, STAT3 dimerization (Homo sapiens, UniProt P40763); assay: STAT3 dimerization in transfected HeLa cells; assay type: cell-based; settings: flag- and HA-tagged STAT3
T2 construct: expressed in transfected cells; host or cells: HeLa
T2 sequence (P40763 whole entry): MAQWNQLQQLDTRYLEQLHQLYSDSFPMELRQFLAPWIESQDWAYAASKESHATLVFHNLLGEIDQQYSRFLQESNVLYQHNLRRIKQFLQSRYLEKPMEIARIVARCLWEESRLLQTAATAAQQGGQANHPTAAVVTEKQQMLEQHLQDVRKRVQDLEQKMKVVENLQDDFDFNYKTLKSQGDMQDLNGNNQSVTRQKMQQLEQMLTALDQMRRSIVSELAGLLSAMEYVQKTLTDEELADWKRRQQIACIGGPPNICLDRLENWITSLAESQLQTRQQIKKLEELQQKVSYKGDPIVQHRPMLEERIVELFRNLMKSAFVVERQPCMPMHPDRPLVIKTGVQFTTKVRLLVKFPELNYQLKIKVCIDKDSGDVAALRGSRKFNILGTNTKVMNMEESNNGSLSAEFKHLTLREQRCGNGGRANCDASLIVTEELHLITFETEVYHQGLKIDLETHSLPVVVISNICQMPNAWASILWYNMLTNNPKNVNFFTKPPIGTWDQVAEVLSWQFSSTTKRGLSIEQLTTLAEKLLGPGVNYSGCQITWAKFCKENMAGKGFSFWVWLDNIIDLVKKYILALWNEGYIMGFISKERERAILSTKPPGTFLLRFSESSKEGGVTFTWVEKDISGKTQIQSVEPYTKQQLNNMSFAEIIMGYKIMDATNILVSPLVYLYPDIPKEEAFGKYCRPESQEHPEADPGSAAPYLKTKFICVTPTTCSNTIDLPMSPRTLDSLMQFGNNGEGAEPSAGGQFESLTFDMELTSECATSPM

[9] = tested on: IL-6 secretion; assay: IL-6 secretion; assay type: cell-based, human; settings: FIG. 57(C)
[10] = tested on: VEGF induced vessels in Matrigel plugs; assay: Vascularization of […] plugs in vivo; design: species or system mouse
Description: To further characterize anti-angiogenetic properties of LY5 in vivo, we performed murine […]™ plug experiments. PBS was used as a negative control, and VEGF (100 ng/mL) as a positive control. […]™ was injected subcutaneously into CB17SC scid−/− female mice, forming semi-solid plugs. Animals received treatment of LY5 (5 mg/kg) I.P. intraperitoneal (i.p.) injection immediately after the […]™ injection and daily for 7 days. On day 7, plugs were excised under anesthesia, fixed in PBS-buffered 10% formalin containing 0.25% glutaraldehyde, and were processed for H&E and Masson's Trichrome staining. Vascular identity of the infiltrating cells was established with CD34 immunostaining. The regions containing the most intense area of neovascularization (“hotspots”) were chosen for analysis. Eight hotspots were identified for each Matrigel […]™ or tumor section. The ImagePro Plus analysis system (Media Cybernetics Inc, Bethesda, Md.) was used to quantify the percentage of area occupied by the vessel-like structures in each field. The mean±SE from each group were compared. The negative control was obtained by tissue staining with secondary antibody only.

## NS(=O)(=O)c1cccc2c1C(=O)C=C(Nc1cccnc1)C2=O [LY-5, 5,8-dioxo-6-(pyridin-3-ylamino)-5,8-dihydronaphthalene-1-sulfonamide]
[1]; Table 2, cell line not given, read-out: IC50
  IC50: 0.5 µM
[1]; Table 7, read-out: IC50 U2OS
  IC50: 0.52 µM
[1]; Table 8, read-out: IC50 values vs. cell lines, U2OS
  IC50: 0.52 µM
[2]; Table 7, read-out: IC50 RH30
  IC50: 0.55 µM
[2]; Table 8, read-out: IC50 values vs. cell lines, RH30
  IC50: 0.55 µM
[3]
  IC50: 0.5 to 1.4 µM
[4]; at 1000 nM
  inhibition: no inhibition
[4]; at 5 μM, FIG. 60
  activity against PLK3: some activity
[4]; at 5000 nM
  inhibition at 5 µM: 72%
[5]; 1 μM drug concentration, FIG. 56
  inhibitory binding to the active sites of 96 kinases: no apparent inhibitory binding
[5]; 1000 and 5000 nM
  inhibition of the panel of kinases: did not significantly inhibit; also recorded: no apparent activity
[6]; 37° C., FIG. 8
  binding to STAT3 SH2 protein: binds
[6]; 37° C., STAT3 300 nM, labeled peptide 10 nM
  Ki: 2.5 µM
[6]; from FP Ki
  experimental ΔG value: -33.1 kJ/mol
[7]; HCT-116, LY5+AZD6244 5 μM+10 μM
  P-STAT3 induced by AZD6244: decrease in STAT3 phosphorylation
[7]; MIA-PaCa-2, LY5+AZD 1 μM+10 μM
  P-STAT3 induced by AZD6244: decrease in STAT3 phosphorylation
[8]
  STAT3 dimerization: inhibits
[9]
  IL-6 secretion: can decrease
[10]; 5 mg/kg daily, day 7
  number of CD34 positive vessels in Matrigel plugs: decrease in number of vessels
[10]; 5 mg/kg dose level, VEGF plugs
  decrease of vessel formation in Matrigel plugs: 85%
